From PubChem BioAssay AID1963833 (Molecular Pharmacology Branch, DTP, NCI, 2024)

System: 883617-216-R-J1-PDC complex spheroid viability
Experiment: Anticancer human tumor 883617-216-R-J1-PDC patient-derived bladder carcinoma cell line growth inhibition [POLQ]
Conditions: for IC50: curve of first compound; for viability, T/C: stronger effect = lower value
Summary of the method: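 Three-cell-type spheroids modelling solid tumor plus stroma served as the readout system; POL inhibitors were tested individually and in combination, concentration ranges set by clinical Cmax where known.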

[1] = second compound 0.0316 µM, first compound 0.0316 µM
[2] = second compound 0.0316 µM, first compound 0.1 µM
[3] = second compound 0.0316 µM, first compound 0.316 µM
[4] = second compound 0.0316 µM, first compound 1 µM
[5] = second compound 0.0316 µM, first compound 3.16 µM
[6] = second compound 0.0316 µM, first compound 10 µM
[7] = second compound 0.1 µM, first compound 0.0316 µM
[8] = second compound 0.1 µM, first compound 0.1 µM
[9] = second compound 0.1 µM, first compound 0.316 µM
[10] = second compound 0.1 µM, first compound 1 µM
[11] = second compound 0.1 µM, first compound 3.16 µM
[12] = second compound 0.1 µM, first compound 10 µM
[13] = second compound 0.316 µM, first compound 0.0316 µM
[14] = second compound 0.316 µM, first compound 0.1 µM
[15] = second compound 0.316 µM, first compound 0.316 µM
[16] = second compound 0.316 µM, first compound 1 µM
[17] = second compound 0.316 µM, first compound 3.16 µM
[18] = second compound 0.316 µM, first compound 10 µM
[19] = second compound 1 µM, first compound 0.0316 µM
[20] = second compound 1 µM, first compound 0.1 µM
[21] = second compound 1 µM, first compound 0.316 µM
[22] = second compound 1 µM, first compound 1 µM
[23] = second compound 1 µM, first compound 3.16 µM
[24] = second compound 1 µM, first compound 10 µM
[25] = second compound 3.16 µM, first compound 0.0316 µM
[26] = second compound 3.16 µM, first compound 0.1 µM
[27] = second compound 3.16 µM, first compound 0.316 µM
[28] = second compound 3.16 µM, first compound 1 µM
[29] = second compound 3.16 µM, first compound 3.16 µM
[30] = second compound 3.16 µM, first compound 10 µM
[31] = second compound 10 µM, first compound 0.0316 µM
[32] = second compound 10 µM, first compound 0.1 µM
[33] = second compound 10 µM, first compound 0.316 µM
[34] = second compound 10 µM, first compound 1 µM
[35] = second compound 10 µM, first compound 3.16 µM
[36] = second compound 10 µM, first compound 10 µM
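Also: spheroids exposed to compounds for seven days before readout.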
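For viability, T/C in this document: 100% = DMSO vehicle control viability.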

In the case of `CC(C)n1c(=O)n(C)c2cnc3cc(F)c(-c4ccc(OCCCN5CCCCC5)nc4)cc3c21` + Cc1cccc(N(C)C(=O)C2C(O)CCN2c2nc(C)cc(C(F)(F)F)c2C#N)c1, the IC50 (second compound 0.0316 µM) is reported as greater than 10 µM, the IC50 (second compound 0.1 µM) is reported as greater than 10 µM and the IC50 (second compound 0.316 µM) is reported as greater than 10 µM. It also gave an IC50 (second compound 1 µM) greater than 10 µM, an IC50 (second compound 3.16 µM) greater than 10 µM and an IC50 (second compound 10 µM) greater than 10 µM. For the same compound, the viability, T/C [1] was 105%, the viability, T/C [2] was 96.2% and the viability, T/C [3] was 108%. The viability, T/C [4] was 90%, the viability, T/C [5] was 83.9% and the viability, T/C [6] was 59.9%. It also gave a viability, T/C [7] of 108%, a viability, T/C [8] of 111% and a viability, T/C [9] of 105%. For the same compound, the viability, T/C [10] was 98.7%, the viability, T/C [11] was 91.5% and the viability, T/C [12] was 62%. For the same compound, the viability, T/C [13] was 107%, the viability, T/C [14] was 93.6% and the viability, T/C [15] was 97.2%. The viability, T/C [16] was 110%, the viability, T/C [17] was 92.8% and the viability, T/C [18] was 59%. For the same compound, the viability, T/C [19] was 95.9%, the viability, T/C [20] was 108% and the viability, T/C [21] was 96.1%. The viability, T/C [22] was 98.7%, the viability, T/C [23] was 96.6% and the viability, T/C [24] was 59.5%. It also gave a viability, T/C [25] of 100%, a viability, T/C [26] of 107% and a viability, T/C [27] of 105%. For the same compound, the viability, T/C [28] was 108%, the viability, T/C [29] was 95.6% and the viability, T/C [30] was 65.3%. The viability, T/C [31] was 108%, the viability, T/C [32] was 112% and the viability, T/C [33] was 114%. For the same compound, the viability, T/C [34] was 98.3%, the viability, T/C [35] was 105% and the viability, T/C [36] was 63.4%.
Work on `CCc1cc2c(N3CCc4c(cc(Cn5ccnc5)cc4-c4cn(C)nc4C(F)(F)F)C3=O)ccnc2c(OC)n1` + Cc1cccc(N(C)C(=O)C2C(O)CCN2c2nc(C)cc(C(F)(F)F)c2C#N)c1 yielded an IC50 (second compound 0.0316 µM) greater than 10 µM, an IC50 (second compound 0.1 µM) greater than 10 µM and an IC50 (second compound 0.316 µM) of 8.04 µM. The IC50 (second compound 1 µM) was greater than 10 µM, the IC50 (second compound 3.16 µM) was 8.36 µM and the IC50 (second compound 10 µM) was 8.04 µM. For the same compound, the viability, T/C [1] was 91.7%, the viability, T/C [2] was 103% and the viability, T/C [3] was 82.1%. It also gave a viability, T/C [4] of 82%, a viability, T/C [5] of 70% and a viability, T/C [6] of 53.5%. For the same compound, the viability, T/C [7] was 93%, the viability, T/C [8] was 107% and the viability, T/C [9] was 84.2%. The viability, T/C [10] was 96.6%, the viability, T/C [11] was 73.4% and the viability, T/C [12] was 50.7%. For the same compound, the viability, T/C [13] was 102%, the viability, T/C [14] was 104% and the viability, T/C [15] was 101%. It also gave a viability, T/C [16] of 98%, a viability, T/C [17] of 76.6% and a viability, T/C [18] of 43.7%. The viability, T/C [19] was 98.4%, the viability, T/C [20] was 101% and the viability, T/C [21] was 87.8%. It also gave a viability, T/C [22] of 94.4%, a viability, T/C [23] of 68.2% and a viability, T/C [24] of 61.1%. The viability, T/C [25] was 99.6%, the viability, T/C [26] was 103% and the viability, T/C [27] was 87.7%. The viability, T/C [28] was 86.9%, the viability, T/C [29] was 66.1% and the viability, T/C [30] was 47%. It also gave a viability, T/C [31] of 115%, a viability, T/C [32] of 104% and a viability, T/C [33] of 88.3%. The viability, T/C [34] was 92.9%, the viability, T/C [35] was 76.6% and the viability, T/C [36] was 42.6%.
`COc1cc2cc(C(=O)CCC(=O)O)sc2cc1OC` + Cc1cccc(N(C)C(=O)C2C(O)CCN2c2nc(C)cc(C(F)(F)F)c2C#N)c1 was tested, and the IC50 (second compound 0.0316 µM) was greater than 10 µM, the IC50 (second compound 0.1 µM) was greater than 10 µM and the IC50 (second compound 0.316 µM) was greater than 10 µM. The IC50 (second compound 1 µM) was greater than 10 µM, the IC50 (second compound 3.16 µM) was greater than 10 µM and the IC50 (second compound 10 µM) was greater than 10 µM. It also gave a viability, T/C [1] of 99.1%, a viability, T/C [2] of 101% and a viability, T/C [3] of 109%. For the same compound, the viability, T/C [4] was 106%, the viability, T/C [5] was 101% and the viability, T/C [6] was 115%. The viability, T/C [7] was 98.3%, the viability, T/C [8] was 107% and the viability, T/C [9] was 111%. For the same compound, the viability, T/C [10] was 87.8%, the viability, T/C [11] was 95.6% and the viability, T/C [12] was 102%. The viability, T/C [13] was 115%, the viability, T/C [14] was 114% and the viability, T/C [15] was 89.5%. For the same compound, the viability, T/C [16] was 100%, the viability, T/C [17] was 95.9% and the viability, T/C [18] was 102%. For the same compound, the viability, T/C [19] was 91.7%, the viability, T/C [20] was 98.5% and the viability, T/C [21] was 90.2%. For the same compound, the viability, T/C [22] was 118%, the viability, T/C [23] was 92.8% and the viability, T/C [24] was 102%. For the same compound, the viability, T/C [25] was 94.9%, the viability, T/C [26] was 115% and the viability, T/C [27] was 116%. It also gave a viability, T/C [28] of 112%, a viability, T/C [29] of 112% and a viability, T/C [30] of 106%. It also gave a viability, T/C [31] of 121%, a viability, T/C [32] of 108% and a viability, T/C [33] of 122%. For the same compound, the viability, T/C [34] was 116%, the viability, T/C [35] was 119% and the viability, T/C [36] was 117%.
